Source: PMC11474028, “Lipopeptide antibiotics disrupt interactions of undecaprenyl phosphate with UptA” (Proceedings of the National Academy of Sciences of the …, 2024)
“Also recorded” adds a separate entry of the source.

Tested on: UptA E32A
Test: Native MS of C55-P binding to UptA mutant E32A
Parameters: species or system Bacillus subtilis
Conditions: 2.5 µM E32A UptA and 10 µM C55-P, pH 8.0
From the text: Conserved arginine residues in the putative membrane reentrant loops of E. coli DedA proteins YqjA (R130) and YghB (R136) are important for the cellular role of these proteins ([36]). […] How these residues impact substrate interactions, however, is not known. Based on the model structure of UptA predicted by AlphaFold, the R112 residue should engage Q64 while R118 is able to form hydrogen bonds with E32, H119, and W146 to potentially stabilize the membrane reentrant loops (Fig. 3A). To test for the impact of these residues on C55-P binding, we generated the E32A, Q64A, R112A, R118A, H119A, and W146A UptA single mutants. After purification of the proteins, using the same protocol as the wild type (WT) (Materials and Methods and SI Appendix, Fig. […]
Expression and purification of UptA
Plasmids were used to transform chemically competent E. coli C43(DE3) cells (Lucigen) and selected on LB/Agar containing 100 μg/ml ampicillin at 37 °C. Single colonies were used to inoculate 60 mL LB containing 100 μg/ml ampicillin and were grown at 37 °C overnight for 16 h. […]
The digestion mixture was subsequently incubated with 2-mL bed volume of nickel nitriloacetic acid (NTA) agarose resin to remove His-tagged GFP and TEV protease. […] Concentration was measured using a Biomate UV spectrophotometer at 280 nm using extinction coefficients calculated from their predicted amino […]

CC(C)=CCC/C(C)=C/CC/C(C)=C/CC/C(C)=C\CC/C(C)=C\CC/C(C)=C\CC/C(C)=C\CC/C(C)=C\CC/C(C)=C\CC/C(C)=C\CC/C(C)=C\COP(=O)(O)O [C55-P, undecaprenyl phosphate]
C55-P binding to E32A UptA dimers versus monomers (in words): more significantly than the monomeric form; also recorded: relative intensity of ligand-bound dimers is significantly higher than the ligand-bound monomers | impact of C55-P binding on monomer–dimer ratio of E32A UptA (in words): modest increase in the dimer fraction; also recorded: only a modest impact on the monomer–dimer ratios
